{"source": "patent US20250213543A1", "about": "“AN EMBRYONIC ECTODERM DEVELOPMENT INHIBITOR FOR THE TREATMENT OF SICKLE CELL DISEASE” (Fulcrum Therapeutics, Inc., priority 2022, published 2025)", "assay_type_in_all_cases": "in vivo, human", "key": {"[1]": {"assay": "Phase 1 SAD/MAD clinical study in healthy volunteers: pharmacokinetics", "conditions": "oral, across all doses", "excerpt": "(§1) This is a study of the safety, tolerability, pharmacokinetics (PK) and pharmacodynamics (PD) of Compound 1 from a Phase 1, single ascending dose (SAD) and multiple ascending dose (MAD) clinical study.\n(§2) Healthy volunteers received oral placebo vs. single oral doses of Compound 1 in the SAD cohorts, or oral placebo vs. single oral doses of Compound 1 once daily (QD) for 14 consecutive days in the MAD cohorts. Safety assessments included AEs, vital signs, ECGs, and laboratory parameters. PK/PD blood sampling was performed pre-dose and Days 1 and 2 in the SAD cohorts, and Days 1, 2, 7, 8 and 12-15 in the MAD cohorts. Target engagement was assessed as change from baseline in H3K27me3/Total Histone H3 ratio. PD assessments included changes in F reticulocytes and HBG mRNA.\n(§3) Compound 1 was evaluated in […] healthy volunteer (HV) SAD cohorts (2 to 60 mg), […] HV MAD cohorts (2 to 30 mg QD, 14-day dosing). SAD dose cohorts include 2 mg, 4 mg, 6 mg, 10 mg, 20 mg, 30 mg, 40 mg, and 60 mg Compound 1. MAD dose cohorts include 2 mg, 4 mg, 6 mg, 10 mg, 20 mg, and 30 mg Compound 1."}, "[2]": {"assay": "Phase 1 open-label multiple-dose study in subjects with sickle cell disease: safety and tolerability", "conditions": "oral once daily", "excerpt": "(§4) This is a Phase 1 multicenter, open-label study evaluating the safety, tolerability, pharmacokinetics (PK), fetal hemoglobin (HbF) induction and biological activity of Compound 1 in subjects 18-65 years of age with sickle cell disease (SCD). This study comprises 2 parts and is being conducted in subjects 18-65 years of age with sickle cell disease (SCD) either taking hydroxyurea (HU) at a stable dose for at least the preceding 3 months, or not taking hydroxyurea (HU).\n(§5) The study consists of two phases. In Part A, Cohort 1 received 6 mg of Compound 1 by mouth once daily for 4 weeks, Cohort 2 received 2 mg of Compound 1 by mouth once daily for 4 weeks, and Cohort 3 received 12 mg of Compound 1 by mouth once daily for 4 weeks. An additional cohort may receive up to and including 20 mg of Compound 1 by mouth once daily for 4 weeks depending on the Data Monitoring Committee [DMC] review. Additional cohorts (up to five total cohorts) may be added based on the safety and pharmacokinetic data observed in subjects from the prior and ongoing cohorts. Up to 10 subjects have been or will be enrolled in each treatment arm.\nPart B is the extension study. […]\n(§6) The primary endpoints of the study are to evaluate the safety and tolerability of Compound 1 as measured by the frequency of adverse events and to evaluate single and multiple-dose pharmacokinetics of Compound 1 in subjects with sickle cell disease. […]"}, "[3]": {"tested_on": "fetal hemoglobin (HbF)", "assay": "Phase 1 open-label multiple-dose study in subjects with sickle cell disease: HbF induction by HPLC", "excerpt": "as §4, §5\nPart B is the extension study. Eligible subjects who consent to continue in the extension study continue on treatment at the same dose level selected in Part A for an additional 8 weeks. Subjects who decline to participate in the extension study are followed for an additional 2-3 weeks.\nThe primary endpoints of the study are to evaluate the safety and tolerability of Compound 1 as measured by the frequency of adverse events and to evaluate single and multiple-dose pharmacokinetics of Compound 1 in subjects with sickle cell disease. Secondary endpoints include evaluating the effect of Compound 1 on fetal hemoglobin induction in peripheral blood, as well as changes from baseline in reticulocytes, in subjects with sickle cell disease. Exploratory endpoints include biomarkers of hemolysis, target engagement, incidence of vaso-occlusive crises (VOCs), and quality of life (QOL) measurements."}, "[4]": {"tested_on": "HBG mRNA", "assay": "Phase 1 MAD study: HBG mRNA induction", "experimental": "as §2\nSafety Follow-up (SFU) samples were collected 7-10 days post 14-day treatment period.\n(§7) Data in FIG. 1 and FIG. 2 are presented as geometric LS mean ratios (to placebo) with a 95% confidence interval. Mixed-effects model for repeated measures (MMRM) analysis was performed for Day 7 and Day 14 measurements. An analysis of covariance (ANCOVA) was utilized for SFU data. In FIG. 1 and FIG. 2, “PBO” is placebo."}, "[5]": {"tested_on": "H3K27me3/Total Histone H3 ratio", "assay": "Phase 1 SAD/MAD study: target engagement (change from baseline in H3K27me3/Total Histone H3 ratio)", "conditions": "healthy volunteers; across the entire dose range", "experimental": "as §2"}, "[6]": {"assay": "Phase 1 SAD/MAD clinical study in healthy volunteers: safety and tolerability", "excerpt": "as §1, §2, §3"}, "[7]": {"tested_on": "red blood cells", "assay": "Phase 1 open-label study in subjects with sickle cell disease: hemolysis and anemia markers (RDW, reticulocytes, total hemoglobin)", "conditions": "SCD Cohort 1, 6 mg once daily", "excerpt": "as §4, §5, §6"}, "[8]": {"tested_on": "F-reticulocytes", "assay": "Phase 1 MAD study: F-reticulocytes", "conditions": "safety follow-up (SFU) visits 7-10 days post 14-day treatment; dosed at ≥6 mg", "experimental": "as §2\nIncreases in F-cells and HbF protein are projected with longer treatment duration.\nas §7"}, "[9]": {"conditions": "SAD 2 to 60 mg, MAD 2 to 30 mg QD 14-day oral dosing"}}, "data": [{"smiles": "Cc1ncccc1-c1cc2c(n3cnnc13)NCc1c(F)ccc3c1[C@H](CO3)CO2", "note": "[Compound 1]", "values": [{"measurement": "PK profiles", "setting": "[1]", "value": "dose proportionality across all doses"}, {"measurement": "Tolerability", "setting": "[2]", "value": "generally well tolerated"}, {"measurement": "response differences in HU versus non-HU treated subjects", "setting": "[3]; SCD Cohort 1, 6 mg once daily, Subjects 7 and 8", "value": "no apparent response differences"}, {"measurement": "HbF increase", "setting": "[3]; SCD Cohort 1, 6 mg orally once daily, Subjects 7 and 8 (with and without HU), day 84", "value": "6.8%-9.5%"}, {"measurement": "HbF response across doses", "setting": "[3]; SCD Cohorts 1 and 2 (6 mg and 2 mg orally once daily)", "value": "dose-dependent, clinically relevant and consistent increase in HbF"}, {"measurement": "absolute HbF increases from baseline", "setting": "[3]; SCD, a subject in the 12 mg dose cohort (Cohort 3), after 42 days of treatment", "value": "up to 10.0%"}, {"measurement": "HBG mRNA induction dependence", "setting": "[4]; MAD cohorts, FIG. 1", "value": "both time- and dose-dependent"}, {"measurement": "placebo-adjusted increases from baseline in HBG mRNA", "setting": "[4]; healthy volunteers, 6-30 mg MAD cohorts, QD 14 days oral", "value": "2.4-6.2 fold"}, {"measurement": "Target engagement", "setting": "[5]", "value": "Robust target engagement"}, {"measurement": "SAEs or discontinuations", "setting": "[6]; [9]", "value": "no SAEs or discontinuations"}, {"measurement": "Treatment-related adverse events", "setting": "[6]; [9]", "value": "mild (Grade 1 or 2)"}, {"measurement": "Tolerability / safety signals", "setting": "[6]; SAD and MAD cohorts", "value": "generally well tolerated and no unexpected safety signals were detected"}, {"measurement": "absolute reticulocyte count and total hemoglobin", "setting": "[7]", "value": "reductions in reticulocytes and increases in total hemoglobin"}, {"measurement": "red cell distribution width (RDW)", "setting": "[7]; Subjects 7 and 8", "value": "reductions in RDW"}, {"measurement": "mean fold increase in F-reticulocytes", "setting": "[8]", "value": "1.7-3.9 fold"}]}]}
